What was measured:
yellowtail = test system: yellowtail; set-up: method as in Our unpublished research; conditions: ref Our unpublished research; cited from earlier work
[1] = Uptake factor of selenoneine from feed (ratio of concentration in muscle or blood cells to feed); type: in vivo, red seabream Pagrus major; conditions: artificial feed containing selenoneine at 0.1–2 mg Se/kg
Procedure: Uptake factor is defined as a ratio of selenoneine concentration in muscle or blood cells to those in feed, and is the same as the biomagnification factor (Yamada et al. [1994]). Thus, uptake factor is an indicator showing the degree of accumulation of selenoneine in muscle or blood cells by dietary intake of feed. The uptake factor was calculated by the following equation on the equilibrium period of the dietary exposure experiments:
Uptake factor = ((Cen − Cb) / CF) × 10^–3where Cen is selenoneine concentration in muscle or blood cells of fish fed with selenoneine-contained feed (ng/kg), Cb is selenoneine concentration in muscle or blood cells of the control fish (ng/kg wet), and CF is the selenoneine concentration in the contained feed (μg/kg).

[2] = Selenoneine concentration in white muscle and blood cell by HPLC-ICP-MS (82Se); type: in vivo, red seabream Pagrus major; conditions: for Selenoneine concentration, blood cell / Selenoneine concentration, white muscle: fish cultured for 4 weeks
Procedure: (§1) Red seabream fry (average body weight of 5.4 g) was obtained from private seed and seedling production company (Oita, Japan) and cultured for seven months up to average body weight of 250 g. Chemical composition of control diet was containing crude protein 50%; […]; Ca 2.3%; ash 16.0%; and phosphorus 1.5%. Each selenium-added diet was fed twice a day for 4 weeks in an amount of 1% of the average body weight. Body weight of fish in each tank was measured when fish were sampled and amount of diet was calculated according to the body weight of every sampling day. The added selenium concentrations in the diets were set in 0 ppm, 1 ppm, and 2 ppm selenium according to the previous study (Tohfuku et al. [2021]). After that, they were fed a commercial diet twice a day for 1 week. The test groups were the control group, the sodium selenite group (1 mg Se/kg feeding group and 2 mg Se/kg feeding group), the selenomethionine group (1 mg Se/kg feeding group and 2 mg Se/kg feeding group), and the selenoneine group (1 mg Se/kg feeding group and 2 mg Se/kg feeding group) were set. The number of fish raised was 15 from the start of rearing in each tank until the 2nd week, 10 from the 3rd to 4th week, and 5 in the 5th week. […] We reared red seabream by feeding of 1% dry pellet containing of sodium selenite, selenomethionine, or selenoneine of body weight twice a day for 4 weeks. After that, we replaced to 1% of commercial dry pellet of body weight twice a day for 1 week from the selenium supplementation. Average water temperature was 20.9 ℃ (19.0–23.9 ℃) and average dissolved oxygen was 7.41 mg/L. The body weight change of red seabream for 5 weeks is shown in Table S2.
(§2) Red seabream was anesthetized by adding 2 mL of anesthetic (1/100 volume of 2-methylquinoline dissolved in ethanol) to 1 L of seawater. A small amount of an anticoagulant (heparin sodium dissolved in physiological saline; 800 units/mL) was placed in a syringe in advance, and blood was collected from the caudal peduncle of each fish. The collected blood was centrifuged at 5000 rpm for 5 min (4 °C), divided into a plasma fraction and a precipitated fraction, and stored at − 50 °C. The precipitated fraction was used for analysis as the blood cell fraction.
Selenoneine was separated by chromatography using a Shodex GF-310 column (4.5 mm × 150 mm; Showa Denko, Tokyo, Japan) equilibrated with 100 mM ammonium formate buffer containing 0.1% (w/v) Igepal CA-630 (MP Biomedicals, CA, USA). The injection volume was at 10 μL. The mobile phase delivered at 0.5 mL/min isocratically. ^82Se was detected with high performance liquid chromatography inductively coupled plasma mass spectrometry (HPLC-ICP-MS; Agilent 1100 Series and Agilent 7500 Series, Agilent Technology) (Yamashita and Yamashita [2010]). During separation, selenoneine was eluted at a retention time of 200 s, and the selenium concentration was determined using selenoneine as a standard.

red seabream = experiment: Oxidation-reduction potential (ORP) in white muscle; type: in vivo, red seabream Pagrus major; conditions: 2 weeks; 1 or 2 ppm in diet
Procedure: ORP was measured with ORP electrode (9300, Horiba, Kyoto, […]). The electrode was pierced into muscle and pressed gently until the potential stabilized for 60 s.

[3] = Total selenium concentrations in the tissues of red seabream after feeding selenium-supplemented dry pellet (fluorometric assay with 2,3-diamino-naphthalene); type: in vivo, red seabream Pagrus major
Procedure: as §1, §2
Total selenium concentration was determined by fluorometric assay with 2,3-diamino-naphthalene, after digestion in 1.5 mL of nitric acid and perchloric acid (1:2 in volume) at 200–220 ℃ (Watkinson [1966]; Yamashita and Yamashita [2010]).

[4] = 5 weeks (4 weeks supplementation, then 1 week commercial diet), diet 1 mg Se/kg added
[5] = 5 weeks (4 weeks supplementation, then 1 week commercial diet), diet 2 mg Se/kg added

C[N+](C)(C)[C@@H](Cc1cnc([Se-])[nH]1)C(=O)O [Selenoneine, 2-selenyl-Nα, Nα, Nα-trimethyl-L-histidine]
ORP after dietary intake (yellowtail): reduced ORP and approached the ORP of wild fish | Uptake factor of selenoneine in the blood ([1]; blood (blood cells)): 4.0 | Uptake factor of selenoneine in the white muscle ([1]; white muscle): 0.0062 | Selenoneine as share of total selenium in blood cell ([2]; blood cell, 4 weeks): more than 63% | Selenoneine concentration, blood cell ([2]; blood cell, diet 1 mg Se/kg added): 4.72 ± 1.06 mg Se/kg | Selenoneine concentration, blood cell ([2]; blood cell, diet 1 mg Se/kg added, listed as selenoneine): 4.72 ± 1.06 mg Se/kg | Selenoneine concentration, blood cell ([2]; blood cell, diet 2 mg Se/kg added): 10.29 ± 3.14 mg Se/kg | Selenoneine concentration, blood cell ([2]; blood cell, diet 2 mg Se/kg added, listed as selenoneine): 10.29 ± 3.14 mg Se/kg | Selenoneine as share of selenium in white muscle ([2]; white muscle, 4 weeks): 4.6–7.0% | Selenoneine concentration, white muscle ([2]; white muscle, diet 1 mg Se/kg added): 0.025 ± 0.003 mg Se/kg | Selenoneine concentration, white muscle ([2]; white muscle, diet 1 mg Se/kg added, listed as selenoneine): 0.025 ± 0.003 mg Se/kg | Selenoneine concentration, white muscle ([2]; white muscle, diet 2 mg Se/kg added): 0.030 ± 0.007 mg Se/kg | Selenoneine concentration, white muscle ([2]; white muscle, diet 2 mg Se/kg added, listed as selenoneine): 0.030 ± 0.007 mg Se/kg | Selenoneine concentration in white muscle ([2]; white muscle, selenoneine 1 mg Se/kg administration group): 25.4 ± 3.2 µg Se/kg | Selenoneine concentration in white muscle ([2]; white muscle, selenoneine 2 mg Se/kg administration group): 30.0 ± 6.6 µg Se/kg | Ratio of selenium used in selenoneine in white muscle ([2]; white muscle, selenoneine 2 ppm administration group): about 7.0% | ORP in white muscle compared to control (red seabream): reduced ORP | Total selenium content, blood cell ([3]; 2 weeks, diet 1 mg Se/kg added): 3.98 ± 1.00 mg Se/kg | Total selenium content, blood cell ([3]; 2 weeks, diet 2 mg Se/kg added): 9.28 ± 1.67 mg Se/kg | Total selenium content, blood cell ([3]; 4 weeks, diet 1 mg Se/kg added): 5.93 ± 1.00 mg Se/kg | Total selenium content, blood cell ([3]; 4 weeks, diet 2 mg Se/kg added): 9.94 ± 2.05 mg Se/kg | Total selenium content, blood cell [3, 4]: 4.70 ± 0.53 mg Se/kg | Total selenium content, blood cell [3, 5]: 9.10 ± 1.48 mg Se/kg | Total selenium content, brain ([3]; 2 weeks, diet 1 mg Se/kg added): 0.48 ± 0.02 mg Se/kg | Total selenium content, brain ([3]; 2 weeks, diet 2 mg Se/kg added): 0.50 ± 0.04 mg Se/kg | Total selenium content, brain ([3]; 4 weeks, diet 1 mg Se/kg added): 0.55 ± 0.06 mg Se/kg | Total selenium content, brain ([3]; 4 weeks, diet 2 mg Se/kg added): 0.56 ± 0.05 mg Se/kg | Total selenium content, brain [3, 4]: 0.48 ± 0.09 mg Se/kg | Total selenium content, brain [3, 5]: 0.47 ± 0.04 mg Se/kg | Tissues in which total selenium was accumulated compared with the control group ([3]; diet 1 mg Se/kg): white muscle, kidney, spleen, hepatopancreas, brain, and blood cell | Tissues in which total selenium was accumulated compared with the control group ([3]; diet 2 mg Se/kg): white muscle, heart, kidney, spleen, hepatopancreas, brain, and blood cell | Total selenium content, heart ([3]; 2 weeks, diet 1 mg Se/kg added): 1.11 ± 0.11 mg Se/kg | Total selenium content, heart ([3]; 2 weeks, diet 2 mg Se/kg added): 1.32 ± 0.18 mg Se/kg | Total selenium content, heart ([3]; 4 weeks, diet 1 mg Se/kg added): 1.16 ± 0.11 mg Se/kg | Total selenium content, heart ([3]; 4 weeks, diet 2 mg Se/kg added): 1.19 ± 0.09 mg Se/kg | Total selenium content, heart [3, 4]: 1.09 ± 0.15 mg Se/kg | Total selenium content, heart [3, 5]: 1.28 ± 0.29 mg Se/kg | Total selenium content, hepatopancreas ([3]; 2 weeks, diet 1 mg Se/kg added): 1.27 ± 0.18 mg Se/kg | Total selenium content, hepatopancreas ([3]; 2 weeks, diet 2 mg Se/kg added): 1.51 ± 0.26 mg Se/kg | Total selenium content, hepatopancreas ([3]; 4 weeks, diet 1 mg Se/kg added): 1.22 ± 0.14 mg Se/kg | Total selenium content, hepatopancreas ([3]; 4 weeks, diet 2 mg Se/kg added): 1.35 ± 0.18 mg Se/kg | Total selenium content, hepatopancreas [3, 4]: 1.34 ± 0.26 mg Se/kg | Total selenium content, hepatopancreas [3, 5]: 1.40 ± 0.25 mg Se/kg | Total selenium content, kidney ([3]; 2 weeks, diet 1 mg Se/kg added): 3.22 ± 0.18 mg Se/kg | Total selenium content, kidney ([3]; 2 weeks, diet 2 mg Se/kg added): 3.46 ± 0.43 mg Se/kg | Total selenium content, kidney ([3]; 4 weeks, diet 1 mg Se/kg added): 3.17 ± 0.40 mg Se/kg | Total selenium content, kidney ([3]; 4 weeks, diet 2 mg Se/kg added): 4.03 ± 0.72 mg Se/kg | Total selenium content, kidney [3, 4]: 2.96 ± 0.32 mg Se/kg | Total selenium content, kidney [3, 5]: 3.51 ± 0.49 mg Se/kg | Total selenium content, spleen ([3]; 2 weeks, diet 1 mg Se/kg added): 3.45 ± 0.56 mg Se/kg | Total selenium content, spleen ([3]; 2 weeks, diet 2 mg Se/kg added): 4.69 ± 0.79 mg Se/kg | Total selenium content, spleen ([3]; 4 weeks, diet 1 mg Se/kg added): 3.23 ± 0.37 mg Se/kg | Total selenium content, spleen ([3]; 4 weeks, diet 2 mg Se/kg added): 5.20 ± 1.01 mg Se/kg | Total selenium content, spleen [3, 4]: 3.15 ± 0.83 mg Se/kg | Total selenium content, spleen [3, 5]: 3.16 ± 0.68 mg Se/kg | Total selenium content, white muscle ([3]; 2 weeks, diet 1 mg Se/kg added): 0.39 ± 0.05 mg Se/kg | Total selenium content, white muscle ([3]; 2 weeks, diet 2 mg Se/kg added): 0.35 ± 0.04 mg Se/kg | Total selenium content, white muscle ([3]; 4 weeks, diet 1 mg Se/kg added): 0.40 ± 0.05 mg Se/kg | Total selenium content, white muscle ([3]; 4 weeks, diet 2 mg Se/kg added): 0.43 ± 0.04 mg Se/kg | Total selenium content, white muscle [3, 4]: 0.38 ± 0.04 mg Se/kg | Total selenium content, white muscle [3, 5]: 0.38 ± 0.03 mg Se/kg
